System: Prostaglandin E2 (PGE2)
Assay: Anti-inflammatory activity: PGE2 quantification by ELISA in cells stimulated by IL-1α
Format: cell-based
Settings: Cycloheximide 100 µg/ml; IL-1α (5 pM)
Description: When cells are stimulated by an inflammatory agent PGE2 is synthesized de novo and released into the extracellular space. Thus quantification of PGE2 is used to asses the anti-inflammatory activity products.
In the present example the anti-inflammatory activity of the extract of example 2 was determined by quantification of PGE2 in cells stimulated by IL-1α using a kit for an enzyme-linked immunosorbent assay (ELISA). The kit used was Prostaglandin E2 EIA kit Item n° 514010 from Cayman Chemical.
Prostaglandin E2 assay is based on competition between the PGE2 to be determined and a fixed amount of added PGE2-acetylcholinesterase (AChE) conjugate (PGE2 tracer) for a limited amount of PGE2 monoclonal antibody. The amount of PGE2 tracer able to bind the PGE2 monoclonal antibody will be inversely proportional to the concentration of PGE2 in the well. Both the antibody-PGE2 complex and then antibody-PGE2 tracer complex bind to polyclonal goat anti-mouse IgG previously bound to the well. Then the plate is washed to remove any unbound reagent and Ellman's reagent is added to determine the amount of AChE bound to the well. […] The intensity of this color, determined by UV-Vis spectrophotometry, is proportional to the amount of PGE2 tracer bound […], which is inversely proportional to the amount of PGE2 present in the free well during incubation.

Which results are given for `C[C@@H]1C[C@@H]([C@H](O)CC2CC(=O)NC(=O)C2)C(=O)[C@@H](C)C1` [Cycloheximide]?
PGE2: 31.85 pg/mL; inhibition at 100 µg/mL: 97.6%

Reference: patent publication EP3336173A1, “A STRAIN OF A[…] APPLICATIONS THEREOF” (Infinitec Activos S.L., priority 2016, dated 2018)
